ChEMBL document CHEMBL6153041, “Discovery of High-Affinity SMARCA2/4 Bromodomain Ligands and Development of Potent and Exceptionally Selective SMARCA2 PROTAC Degraders” (J Med Chem, 2025)

Legend:
[1] = target: T1, Protein cereblon/SWI/SNF-related matrix-associated actin-dependent regulator of chromatin subfamily A member 2 (Homo sapiens, UniProt P51531+Q96SW2); experiment: PROTAC activity at CRBN/SMARCA2 in human RKO cells assessed as degradation measured after 24 hrs by Western blot analysis; type: cell-based
[2] = target: T1, Protein cereblon/SWI/SNF-related matrix-associated actin-dependent regulator of chromatin subfamily A member 2; experiment: PROTAC activity at CRBN/SMARCA2 in human RKO cells assessed as maximal degradation measured after 24 hrs by Western blot analysis relative to control; type: cell-based
[3] = target: T2, Protein cereblon/SWI/SNF-related matrix-associated actin-dependent regulator of chromatin subfamily A member 4 (Homo sapiens) (UniProt P51532+Q96SW2); experiment: PROTAC activity at CRBN/SMARCA4 in human RKO cells assessed as maximal degradation measured after 24 hrs by Western blot analysis relative to control; type: cell-based
[4] = target: T3, von Hippel-Lindau disease tumor suppressor/SWI/SNF-related matrix-associated actin-dependent regulator of chromatin subfamily A member 2 (Homo sapiens, UniProt P51531+P40337); experiment: PROTAC activity at VHL1/SMARCA2 in human genetically modified Hela cells assessed as degradation measured after 24 hrs incubation by Nano-Glo HiBiT Lytic Detection Assay; type: cell-based
Target sequence in this assay (P51531 whole entry): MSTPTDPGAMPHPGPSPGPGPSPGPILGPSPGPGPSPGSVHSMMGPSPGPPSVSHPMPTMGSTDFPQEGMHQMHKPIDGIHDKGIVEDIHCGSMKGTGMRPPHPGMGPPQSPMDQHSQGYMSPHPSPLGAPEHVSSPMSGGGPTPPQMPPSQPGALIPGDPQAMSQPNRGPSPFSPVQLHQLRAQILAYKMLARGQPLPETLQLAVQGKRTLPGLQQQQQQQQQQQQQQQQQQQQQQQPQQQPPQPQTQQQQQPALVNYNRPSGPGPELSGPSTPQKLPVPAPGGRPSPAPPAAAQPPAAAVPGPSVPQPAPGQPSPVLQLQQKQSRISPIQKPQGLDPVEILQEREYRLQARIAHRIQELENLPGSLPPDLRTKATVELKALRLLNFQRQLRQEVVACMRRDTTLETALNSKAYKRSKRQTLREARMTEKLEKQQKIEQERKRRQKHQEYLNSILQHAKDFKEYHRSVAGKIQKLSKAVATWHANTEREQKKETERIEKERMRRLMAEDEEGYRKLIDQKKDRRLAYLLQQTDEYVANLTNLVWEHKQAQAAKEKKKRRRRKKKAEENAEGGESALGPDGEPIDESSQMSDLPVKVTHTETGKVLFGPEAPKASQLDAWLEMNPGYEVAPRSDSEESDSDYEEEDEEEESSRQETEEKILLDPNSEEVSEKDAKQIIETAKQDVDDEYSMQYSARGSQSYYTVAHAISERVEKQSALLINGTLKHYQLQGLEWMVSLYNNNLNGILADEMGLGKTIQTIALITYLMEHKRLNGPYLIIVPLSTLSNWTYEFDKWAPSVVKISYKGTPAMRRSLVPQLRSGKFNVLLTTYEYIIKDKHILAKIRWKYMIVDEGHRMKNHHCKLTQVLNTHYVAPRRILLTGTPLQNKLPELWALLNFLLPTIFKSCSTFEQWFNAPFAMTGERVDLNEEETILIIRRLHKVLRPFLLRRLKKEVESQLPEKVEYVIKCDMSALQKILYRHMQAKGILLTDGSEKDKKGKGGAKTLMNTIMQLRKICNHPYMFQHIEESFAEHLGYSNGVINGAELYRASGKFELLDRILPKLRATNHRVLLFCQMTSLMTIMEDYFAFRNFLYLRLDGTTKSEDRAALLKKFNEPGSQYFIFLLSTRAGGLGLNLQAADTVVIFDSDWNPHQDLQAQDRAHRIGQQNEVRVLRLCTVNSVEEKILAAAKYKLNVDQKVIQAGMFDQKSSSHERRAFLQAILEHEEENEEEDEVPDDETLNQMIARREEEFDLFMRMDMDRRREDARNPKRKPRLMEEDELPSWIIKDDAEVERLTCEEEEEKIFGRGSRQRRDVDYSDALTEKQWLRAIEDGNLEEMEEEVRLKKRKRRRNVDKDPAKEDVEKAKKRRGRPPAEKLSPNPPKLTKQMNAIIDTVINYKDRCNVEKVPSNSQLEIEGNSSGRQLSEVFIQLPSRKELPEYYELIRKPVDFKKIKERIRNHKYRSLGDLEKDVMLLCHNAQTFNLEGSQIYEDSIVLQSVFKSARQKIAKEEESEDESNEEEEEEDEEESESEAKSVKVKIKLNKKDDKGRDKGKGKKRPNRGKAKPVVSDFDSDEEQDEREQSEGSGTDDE
Target sequence in this assay (P40337 whole entry): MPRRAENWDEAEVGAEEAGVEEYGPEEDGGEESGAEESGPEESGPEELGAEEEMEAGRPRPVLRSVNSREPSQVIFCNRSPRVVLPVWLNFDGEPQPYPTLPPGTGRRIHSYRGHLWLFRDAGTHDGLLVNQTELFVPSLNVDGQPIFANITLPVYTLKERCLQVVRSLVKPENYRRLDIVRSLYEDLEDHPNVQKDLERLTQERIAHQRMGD

[5] = target: T2, Protein cereblon/SWI/SNF-related matrix-associated actin-dependent regulator of chromatin subfamily A member 4 (Homo sapiens); experiment: PROTAC activity at CRBN/SMARCA4 in human RKO cells assessed as degradation measured after 24 hrs by Western blot analysis; type: cell-based
[6] = target: T4, von Hippel-Lindau disease tumor suppressor/SWI/SNF-related matrix-associated actin-dependent regulator of chromatin subfamily A member 4 (Homo sapiens, UniProt P51532+P40337); experiment: PROTAC activity at VHL1/SMARCA4 in human genetically modified Hela cells assessed as degradation measured after 24 hrs incubation by Nano-Glo HiBiT Lytic Detection Assay; type: cell-based
[7] = target: T3, von Hippel-Lindau disease tumor suppressor/SWI/SNF-related matrix-associated actin-dependent regulator of chromatin subfamily A member 2; experiment: PROTAC activity at VHL1/SMARCA2 in human genetically modified Hela cells assessed as maximal degradation measured after 24 hrs incubation by Nano-Glo HiBiT Lytic Detection Assay relative to control; type: cell-based
HeLa = experiment: Selectivity ratio, ratio of DC50 for VHL1/SMARCA4 in human genetically modified Hela cells to VHL1/SMARCA2 in human genetically modified Hela cells; type: cell-based
[8] = target: T4, von Hippel-Lindau disease tumor suppressor/SWI/SNF-related matrix-associated actin-dependent regulator of chromatin subfamily A member 4; experiment: PROTAC activity at VHL1/SMARCA4 in human genetically modified Hela cells assessed as maximal degradation measured after 24 hrs incubation by Nano-Glo HiBiT Lytic Detection Assay relative to control; type: cell-based
Target sequence in this assay (P40337 whole entry, looked up): as the sequence (P40337 whole entry) above
Target sequence in this assay (P51532 whole entry, looked up): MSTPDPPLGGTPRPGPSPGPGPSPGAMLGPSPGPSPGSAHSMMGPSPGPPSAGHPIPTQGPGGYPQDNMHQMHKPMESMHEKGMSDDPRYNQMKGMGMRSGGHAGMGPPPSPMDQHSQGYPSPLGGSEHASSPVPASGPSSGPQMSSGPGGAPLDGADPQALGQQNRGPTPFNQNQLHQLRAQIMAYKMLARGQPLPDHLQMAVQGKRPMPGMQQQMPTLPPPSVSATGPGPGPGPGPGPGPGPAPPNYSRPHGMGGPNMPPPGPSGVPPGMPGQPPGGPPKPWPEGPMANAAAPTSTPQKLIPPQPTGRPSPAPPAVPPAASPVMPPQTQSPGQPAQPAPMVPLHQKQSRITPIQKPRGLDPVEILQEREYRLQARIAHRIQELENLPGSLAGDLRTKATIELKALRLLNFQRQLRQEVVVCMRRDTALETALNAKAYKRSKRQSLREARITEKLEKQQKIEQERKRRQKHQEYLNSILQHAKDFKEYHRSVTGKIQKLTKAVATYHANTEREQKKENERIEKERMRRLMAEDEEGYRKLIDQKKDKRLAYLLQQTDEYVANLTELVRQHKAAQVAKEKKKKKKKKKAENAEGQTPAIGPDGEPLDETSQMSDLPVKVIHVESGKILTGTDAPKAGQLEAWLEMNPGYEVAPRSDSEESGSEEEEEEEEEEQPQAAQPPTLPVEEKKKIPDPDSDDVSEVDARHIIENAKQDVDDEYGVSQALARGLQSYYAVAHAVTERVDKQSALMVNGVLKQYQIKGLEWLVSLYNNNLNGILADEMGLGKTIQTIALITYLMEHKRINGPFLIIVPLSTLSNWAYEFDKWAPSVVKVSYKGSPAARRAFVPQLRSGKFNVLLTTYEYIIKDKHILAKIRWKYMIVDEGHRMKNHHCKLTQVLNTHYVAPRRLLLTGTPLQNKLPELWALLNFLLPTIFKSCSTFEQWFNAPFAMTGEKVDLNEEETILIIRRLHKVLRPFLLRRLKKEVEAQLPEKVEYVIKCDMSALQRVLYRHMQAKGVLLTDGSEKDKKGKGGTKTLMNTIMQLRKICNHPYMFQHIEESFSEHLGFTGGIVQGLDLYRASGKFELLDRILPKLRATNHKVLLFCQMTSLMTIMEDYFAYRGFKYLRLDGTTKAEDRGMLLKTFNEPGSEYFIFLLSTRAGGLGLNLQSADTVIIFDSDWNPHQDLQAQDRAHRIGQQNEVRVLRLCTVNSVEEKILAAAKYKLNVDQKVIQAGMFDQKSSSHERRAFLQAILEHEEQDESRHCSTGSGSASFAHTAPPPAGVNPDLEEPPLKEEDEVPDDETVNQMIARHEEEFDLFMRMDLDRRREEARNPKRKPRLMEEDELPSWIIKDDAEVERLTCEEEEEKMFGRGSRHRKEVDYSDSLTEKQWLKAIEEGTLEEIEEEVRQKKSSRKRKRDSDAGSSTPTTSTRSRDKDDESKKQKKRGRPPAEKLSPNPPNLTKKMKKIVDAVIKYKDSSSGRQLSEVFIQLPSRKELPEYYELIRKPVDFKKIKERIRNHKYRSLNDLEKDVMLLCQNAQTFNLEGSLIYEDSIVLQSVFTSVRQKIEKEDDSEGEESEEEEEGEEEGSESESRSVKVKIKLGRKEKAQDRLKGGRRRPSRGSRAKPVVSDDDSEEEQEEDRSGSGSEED

[9] = tested on: von Hippel-Lindau disease tumor suppressor/SWI/SNF-related matrix-associated actin-dependent regulator of chromatin subfamily A member 4 (Homo sapiens), P51532+P40337 [UNDEFINED MUTATION]; experiment: PROTAC activity at VHL1/SMARCA4 mutant in human NCI-H838 cells assessed as maximal degradation measured after 24 hrs incubation by Western blot analysis relative to control; type: cell-based
[10] = target: T3, von Hippel-Lindau disease tumor suppressor/SWI/SNF-related matrix-associated actin-dependent regulator of chromatin subfamily A member 2; experiment: PROTAC activity at VHL1/SMARCA2 in human genetically modified Hela cells assessed as maximal degradation measured after 4 hrs incubation by Nano-Glo HiBiT Lytic Detection Assay relative to control; type: cell-based
[11] = target: T4, von Hippel-Lindau disease tumor suppressor/SWI/SNF-related matrix-associated actin-dependent regulator of chromatin subfamily A member 4; experiment: PROTAC activity at VHL1/SMARCA4 mutant in human SK-MEL-5 cells assessed as degradation measured after 24 hrs incubation by Western blot analysis; type: cell-based
[12] = target: T3, von Hippel-Lindau disease tumor suppressor/SWI/SNF-related matrix-associated actin-dependent regulator of chromatin subfamily A member 2; experiment: PROTAC activity at VHL1/SMARCA2 in human NCI-H1792 cells assessed as maximal degradation measured after 24 hrs incubation by Western blot analysis relative to control; type: cell-based
[13] = target: T3, von Hippel-Lindau disease tumor suppressor/SWI/SNF-related matrix-associated actin-dependent regulator of chromatin subfamily A member 2; experiment: PROTAC activity at VHL1/SMARCA2 in human genetically modified Hela cells assessed as maximal degradation measured after 48 hrs incubation by Nano-Glo HiBiT Lytic Detection Assay relative to control; type: cell-based
[14] = target: T4, von Hippel-Lindau disease tumor suppressor/SWI/SNF-related matrix-associated actin-dependent regulator of chromatin subfamily A member 4; experiment: PROTAC activity at VHL1/SMARCA4 in human NCI-H1792 cells assessed as maximal degradation measured after 24 hrs incubation by Western blot analysis relative to control; type: cell-based
Target sequence in this assay (P40337 whole entry, looked up): as the sequence (P40337 whole entry) above
Target sequence in this assay (P51532 whole entry, looked up): as the sequence (P51532 whole entry, looked up) above

[15] = target: T4, von Hippel-Lindau disease tumor suppressor/SWI/SNF-related matrix-associated actin-dependent regulator of chromatin subfamily A member 4; experiment: PROTAC activity at VHL1/SMARCA4 in human genetically modified Hela cells assessed as maximal degradation measured after 48 hrs incubation by Nano-Glo HiBiT Lytic Detection Assay relative to control; type: cell-based
Target sequence in this assay (P40337 whole entry, looked up): as the sequence (P40337 whole entry) above
Target sequence in this assay (P51532 whole entry, looked up): as the sequence (P51532 whole entry, looked up) above

NCI-H1792 [16] = experiment: Anticancer activity against human NCI-H1792 cells harbouring wild type SMARCA4 assessed as maximal inhibition of cell growth measured after 7 days incubation by WST-8 assay relative to control; type: functional; details: time 7 day
[17] = target: T4, von Hippel-Lindau disease tumor suppressor/SWI/SNF-related matrix-associated actin-dependent regulator of chromatin subfamily A member 4; experiment: PROTAC activity at VHL1/SMARCA4 in human genetically modified Hela cells assessed as degradation measured after 4 hrs incubation by Nano-Glo HiBiT Lytic Detection Assay; type: cell-based
[18] = target: T4, von Hippel-Lindau disease tumor suppressor/SWI/SNF-related matrix-associated actin-dependent regulator of chromatin subfamily A member 4; experiment: PROTAC activity at VHL1/SMARCA4 in human genetically modified Hela cells assessed as maximal degradation measured after 8 hrs incubation by Nano-Glo HiBiT Lytic Detection Assay relative to control; type: cell-based
Target sequence in this assay (P40337 whole entry, looked up): as the sequence (P40337 whole entry) above
Target sequence in this assay (P51532 whole entry, looked up): as the sequence (P51532 whole entry, looked up) above

[19] = target: T4, von Hippel-Lindau disease tumor suppressor/SWI/SNF-related matrix-associated actin-dependent regulator of chromatin subfamily A member 4; experiment: PROTAC activity at VHL1/SMARCA4 mutant in human NCI-H838 cells assessed as degradation measured after 24 hrs incubation by Western blot analysis; type: cell-based
[20] = target: T3, von Hippel-Lindau disease tumor suppressor/SWI/SNF-related matrix-associated actin-dependent regulator of chromatin subfamily A member 2; experiment: PROTAC activity at VHL1/SMARCA2 in human genetically modified Hela cells assessed as maximal degradation measured after 8 hrs incubation by Nano-Glo HiBiT Lytic Detection Assay relative to control; type: cell-based
[21] = target: T4, von Hippel-Lindau disease tumor suppressor/SWI/SNF-related matrix-associated actin-dependent regulator of chromatin subfamily A member 4; experiment: PROTAC activity at VHL1/SMARCA4 in human genetically modified Hela cells assessed as degradation measured after 8 hrs incubation by Nano-Glo HiBiT Lytic Detection Assay; type: cell-based
[22] = target: T3, von Hippel-Lindau disease tumor suppressor/SWI/SNF-related matrix-associated actin-dependent regulator of chromatin subfamily A member 2; experiment: PROTAC activity at VHL1/SMARCA2 in human genetically modified Hela cells assessed as degradation measured after 8 hrs incubation by Nano-Glo HiBiT Lytic Detection Assay; type: cell-based
Target sequence in this assay (P51531 whole entry): as the sequence (P51531 whole entry) above
Target sequence in this assay (P40337 whole entry): as the sequence (P40337 whole entry) above

[23] = target: T3, von Hippel-Lindau disease tumor suppressor/SWI/SNF-related matrix-associated actin-dependent regulator of chromatin subfamily A member 2; experiment: PROTAC activity at VHL1/SMARCA2 in human genetically modified Hela cells assessed as degradation measured after 48 hrs incubation by Nano-Glo HiBiT Lytic Detection Assay; type: cell-based
Target sequence in this assay (P51531 whole entry): as the sequence (P51531 whole entry) above
Target sequence in this assay (P40337 whole entry): as the sequence (P40337 whole entry) above

SK-MEL-28 [24] = experiment: Anticancer activity against human SK-MEL-28 cells harbouring wild type SMARCA4 assessed as maximal inhibition of cell growth measured after 7 days incubation by WST-8 assay relative to control; type: functional; details: time 7 day
[25] = target: T3, von Hippel-Lindau disease tumor suppressor/SWI/SNF-related matrix-associated actin-dependent regulator of chromatin subfamily A member 2; experiment: PROTAC activity at VHL1/SMARCA2 in human NCI-H1792 cells assessed as degradation measured after 24 hrs incubation by Western blot analysis; type: cell-based
Target sequence in this assay (P51531 whole entry): as the sequence (P51531 whole entry) above
Target sequence in this assay (P40337 whole entry): as the sequence (P40337 whole entry) above

SK-MEL-5 [26] = experiment: Anticancer activity against SMARCA4 deficient human SK-MEL-5 cells assessed as inhibition of cell growth measured after 7 days incubation by WST-8 assay; type: functional; details: SK-MEL-5, 168 h, time 7 day
SK-MEL-5 [27] = experiment: Anticancer activity against SMARCA4 deficient human SK-MEL-5 cells assessed as maximal inhibition of cell growth measured after 7 days incubation by WST-8 assay relative to control; type: functional; details: time 7 day
[28] = tested on: von Hippel-Lindau disease tumor suppressor/SWI/SNF-related matrix-associated actin-dependent regulator of chromatin subfamily A member 4 (Homo sapiens), P51532+P40337 [UNDEFINED MUTATION]; experiment: PROTAC activity at VHL1/SMARCA4 mutant in human SK-MEL-5 cells assessed as maximal degradation measured after 24 hrs incubation by Western blot analysis relative to control; type: cell-based
[29] = Anticancer activity against SMARCA4 deficient human NCI-H838 cells assessed as inhibition of cell growth measured after 7 days incubation by WST-8 assay; type: functional; details: NCI-H838, 168 h, time 7 day
SK-MEL-28 [30] = experiment: Anticancer activity against human SK-MEL-28 cells harbouring wild type SMARCA4 assessed as inhibition of cell growth measured after 7 days incubation by WST-8 assay; type: functional; details: SK-MEL-28, 168 h, time 7 day
[31] = Anticancer activity against SMARCA4 deficient human NCI-H838 cells assessed as maximal inhibition of cell growth measured after 7 days incubation by WST-8 assay relative to control; type: functional; details: time 7 day
NCI-H1792 [32] = experiment: Anticancer activity against human NCI-H1792 cells harbouring wild type SMARCA4 assessed as inhibition of cell growth measured after 7 days incubation by WST-8 assay; type: functional; details: NCI-H1792, 168 h, time 7 day
[33] = target: T4, von Hippel-Lindau disease tumor suppressor/SWI/SNF-related matrix-associated actin-dependent regulator of chromatin subfamily A member 4; experiment: PROTAC activity at VHL1/SMARCA4 in human genetically modified Hela cells assessed as degradation measured after 48 hrs incubation by Nano-Glo HiBiT Lytic Detection Assay; type: cell-based
[34] = target: T4, von Hippel-Lindau disease tumor suppressor/SWI/SNF-related matrix-associated actin-dependent regulator of chromatin subfamily A member 4; experiment: PROTAC activity at VHL1/SMARCA4 in human genetically modified Hela cells assessed as maximal degradation measured after 4 hrs incubation by Nano-Glo HiBiT Lytic Detection Assay relative to control; type: cell-based
Target sequence in this assay (P40337 whole entry, looked up): as the sequence (P40337 whole entry) above
Target sequence in this assay (P51532 whole entry, looked up): as the sequence (P51532 whole entry, looked up) above

[35] = target: T4, von Hippel-Lindau disease tumor suppressor/SWI/SNF-related matrix-associated actin-dependent regulator of chromatin subfamily A member 4; experiment: PROTAC activity at VHL1/SMARCA4 in human NCI-H1792 cells assessed as degradation measured after 24 hrs incubation by Western blot analysis; type: cell-based
[36] = target: T3, von Hippel-Lindau disease tumor suppressor/SWI/SNF-related matrix-associated actin-dependent regulator of chromatin subfamily A member 2; experiment: PROTAC activity at VHL1/SMARCA2 in human genetically modified Hela cells assessed as degradation measured after 4 hrs incubation by Nano-Glo HiBiT Lytic Detection Assay; type: cell-based
Target sequence in this assay (P51531 whole entry): as the sequence (P51531 whole entry) above
Target sequence in this assay (P40337 whole entry): as the sequence (P40337 whole entry) above

Compound: Cc1ncsc1-c1ccc([C@H](CC[C@H](C)CCN2CCC(c3ccc4c(c3)n(C3CCCC3)c3nc(=O)c5c(Br)cccc5n43)CC2)NC(=O)[C@@H]2C[C@@H](O)CN2C(=O)[C@@H](NC(=O)C2(F)CC2)C(C)(C)C)cc1
- DC50 [1]: 0.001 µM
- DC50 [2]: 0.032 µM
- Emax [3]: 67%
- DC50 [4]: 0.0023 µM
- Emax [5]: 81%
- DC50 [6]: 0.033 µM
- Emax [7]: 93%
- Ratio (HeLa): 12
- Emax [8]: 86%

Compound: Cc1ncsc1-c1ccc([C@H](C)NC(=O)[C@@H]2C[C@@H](O)CN2C(=O)[C@@H](NC(=O)[C@H]2CC[C@H](CN3CCC(c4ccc5c(c4)-n4c(nc(=O)c6c(Cl)cccc64)C54CCCCC4)CC3)CC2)C(C)(C)C)cc1
- Emax [9]: < 89%
- Emax [10]: 76%
- DC50 [11]: 0.0811 µM
- Emax [12]: 87%
- Emax [13]: 91%
- Emax [14]: < 30%
- Emax [15]: < 10%
- Imax (NCI-H1792 [16]): 0%
- DC50 [17]: > 1 µM
- Emax [18]: < 10%
- DC50 [19]: 0.0762 µM
- Emax [20]: 85%
- DC50 [21]: > 1 µM
- DC50 [22]: 0.089 µM
- DC50 [23]: 0.044 µM
- Imax (SK-MEL-28 [24]): 0%
- DC50 [25]: 0.0542 µM
- GI50 (SK-MEL-5 [26]): > 0.0223 µM
- Imax (SK-MEL-5 [27]): 93%
- Emax [28]: 87%
- GI50 [29]: 0.142 µM
- GI50 (SK-MEL-28 [30]): > 1 µM
- Imax [31]: 79%
- GI50 (NCI-H1792 [32]): > 1 µM
- DC50 [6]: > 10 µM
- DC50 [33]: > 1 µM
- Emax [7]: 89%
- Emax [34]: < 10%
- DC50 [35]: > 1 µM
- DC50 [36]: 0.142 µM
- Ratio (HeLa): > 1250
- Emax [8]: 20%
